# From the NIST ThermoML archive (doi:10.1016/j.jct.2011.10.028)
# ± gives the expanded uncertainty stated by the source.
# Columns and labels:
# [1] = 300.15 K; 101.33 kPa; Liquid; Pycnometric method
# [2] = refractive index (Na D-line) (dimensionless); details: 300.15 K; 101.33 kPa; Liquid; Standard Abbe refractometry
# [3] = relative permittivity at zero frequency (dimensionless); details: 300.15 K; 101.33 kPa; Liquid; impedance analyzer
Structure (SMILES),mass density [1],refractive index [2],relative permittivity at zero frequency [3]
CNc1ccccc1 [N-methylaniline],979.8 ± 0.6 kg/m3,1.566 ± 0.001,5.878 ± 0.001
CCCO [propan-1-ol],798.5 ± 0.4 kg/m3,1.391 ± 0.001,20.678 ± 0.001
CC(C)O [propan-2-ol],779.2 ± 0.4 kg/m3,1.383 ± 0.001,18.562 ± 0.001
